From patent publication US8822500B2, “Tyrosine kinase inhibitors” (Chembridge Corporation, priority 2008, dated 2014)
Like-named read-outs stand apart in the source and are kept apart here.

Assays:
[1] = molecular target: TrkA (Homo sapiens (Human), UniProt P04629); test: In vitro kinase activity assay (LANCE TR-FRET); type: biochemical;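 note: kinase reaction with poly-GT peptide substrate and ATP, phosphorylated product quantified by time-resolved FRET, eleven-point dose curves from 10^−11 to 10^−5 M in triplicate, DMSO as negative control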
Sequence of TrkA (P04629 33-796): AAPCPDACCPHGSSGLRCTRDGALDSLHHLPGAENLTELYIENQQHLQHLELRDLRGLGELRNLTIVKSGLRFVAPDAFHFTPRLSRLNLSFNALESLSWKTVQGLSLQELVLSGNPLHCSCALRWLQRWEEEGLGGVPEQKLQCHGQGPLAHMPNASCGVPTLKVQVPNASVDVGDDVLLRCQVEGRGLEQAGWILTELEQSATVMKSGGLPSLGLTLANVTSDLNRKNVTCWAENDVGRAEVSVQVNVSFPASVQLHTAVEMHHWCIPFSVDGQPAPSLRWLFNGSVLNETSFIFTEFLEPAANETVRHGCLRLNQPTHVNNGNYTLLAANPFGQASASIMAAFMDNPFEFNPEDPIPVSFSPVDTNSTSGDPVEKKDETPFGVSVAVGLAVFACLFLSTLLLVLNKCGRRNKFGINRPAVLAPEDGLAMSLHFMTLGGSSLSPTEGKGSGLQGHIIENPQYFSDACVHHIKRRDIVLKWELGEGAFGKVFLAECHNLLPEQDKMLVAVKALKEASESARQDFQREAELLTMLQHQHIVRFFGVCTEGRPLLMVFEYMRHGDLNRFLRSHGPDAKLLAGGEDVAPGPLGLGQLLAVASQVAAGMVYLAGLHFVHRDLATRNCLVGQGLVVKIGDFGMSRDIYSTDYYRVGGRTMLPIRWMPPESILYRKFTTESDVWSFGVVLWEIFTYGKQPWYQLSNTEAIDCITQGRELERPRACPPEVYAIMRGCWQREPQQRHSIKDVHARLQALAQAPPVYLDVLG

[2] = Metabolic stability, Phase I microsome reactions; type: in vitro ADME, mouse; details: 1.0 mg/ml microsomes; for microsomal CLint at 0.5 μM / half-life at 0.5 μM: mouse, liver microsomes, pH 7.4, Phase I only; for microsomal CLint at 0.5 μM: read-out: Mouse LM-P1 CL; for half-life at 0.5 μM: read-out: Mouse LM-P1 Half-life
[3] = in vitro; details: human, microsomes; for microsomal CLint at 0.5 μM: pH 7.4, Human LM-P1 CL (ul/min/mg); for half-life at 0.5 μM: pH 7.4, Human LM-P1 Half-life (min)
[4] = system: K299 lymphoma cells; test: Cellular assay, 3 day cell viability (WST-1); type: cell-based; details: 72 h, 3 days
[5] = molecular target: RET (Homo sapiens (Human), UniProt P07949); test: In vitro kinase activity assay (LANCE TR-FRET); type: biochemical
Sequence of RET (P07949 29-1114): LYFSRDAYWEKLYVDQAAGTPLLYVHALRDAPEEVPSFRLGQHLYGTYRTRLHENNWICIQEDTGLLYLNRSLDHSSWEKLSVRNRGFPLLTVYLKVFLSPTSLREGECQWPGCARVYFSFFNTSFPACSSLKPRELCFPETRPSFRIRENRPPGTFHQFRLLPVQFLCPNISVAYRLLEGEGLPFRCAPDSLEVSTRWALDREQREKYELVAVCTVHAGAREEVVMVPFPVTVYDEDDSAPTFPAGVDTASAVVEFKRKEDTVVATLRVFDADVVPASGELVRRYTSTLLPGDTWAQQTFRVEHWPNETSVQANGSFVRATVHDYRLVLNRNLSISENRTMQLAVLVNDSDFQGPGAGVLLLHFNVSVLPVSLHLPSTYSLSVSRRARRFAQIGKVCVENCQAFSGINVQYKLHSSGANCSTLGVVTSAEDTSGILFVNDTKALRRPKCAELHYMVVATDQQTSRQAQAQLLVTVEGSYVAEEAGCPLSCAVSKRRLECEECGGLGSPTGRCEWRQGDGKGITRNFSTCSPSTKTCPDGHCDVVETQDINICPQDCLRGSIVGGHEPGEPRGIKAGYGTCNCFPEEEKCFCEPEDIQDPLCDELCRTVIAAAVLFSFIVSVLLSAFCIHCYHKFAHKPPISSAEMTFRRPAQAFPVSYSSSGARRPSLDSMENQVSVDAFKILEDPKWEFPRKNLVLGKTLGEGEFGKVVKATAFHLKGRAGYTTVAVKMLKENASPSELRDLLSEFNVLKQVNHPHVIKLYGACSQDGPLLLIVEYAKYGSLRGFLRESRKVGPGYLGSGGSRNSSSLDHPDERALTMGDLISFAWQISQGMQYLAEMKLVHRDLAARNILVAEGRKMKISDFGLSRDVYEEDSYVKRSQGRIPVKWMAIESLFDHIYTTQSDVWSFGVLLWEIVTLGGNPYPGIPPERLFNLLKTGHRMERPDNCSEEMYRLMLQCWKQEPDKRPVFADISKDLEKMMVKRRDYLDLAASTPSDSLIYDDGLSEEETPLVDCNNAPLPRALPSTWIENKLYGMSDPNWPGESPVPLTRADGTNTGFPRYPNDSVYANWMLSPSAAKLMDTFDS

[6] = in vitro; details: rat, microsomes; for half-life at 0.5 μM: pH 7.4; for microsomal CLint at 0.5 μM: pH 7.4, Rat LM-P1 CL (ul/min/mg)
[7] = molecular target: ALK (Homo sapiens (Human), UniProt Q9UM73); test: In vitro kinase activity assay (LANCE TR-FRET); type: biochemical;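 note: kinase reactions with ATP and a poly-GT peptide substrate, phosphorylated product read by time-resolved FRET, 11-point curve from 10^−11 to 10^−5 M, DMSO as negative control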
Sequence of ALK (Q9UM73 19-1620): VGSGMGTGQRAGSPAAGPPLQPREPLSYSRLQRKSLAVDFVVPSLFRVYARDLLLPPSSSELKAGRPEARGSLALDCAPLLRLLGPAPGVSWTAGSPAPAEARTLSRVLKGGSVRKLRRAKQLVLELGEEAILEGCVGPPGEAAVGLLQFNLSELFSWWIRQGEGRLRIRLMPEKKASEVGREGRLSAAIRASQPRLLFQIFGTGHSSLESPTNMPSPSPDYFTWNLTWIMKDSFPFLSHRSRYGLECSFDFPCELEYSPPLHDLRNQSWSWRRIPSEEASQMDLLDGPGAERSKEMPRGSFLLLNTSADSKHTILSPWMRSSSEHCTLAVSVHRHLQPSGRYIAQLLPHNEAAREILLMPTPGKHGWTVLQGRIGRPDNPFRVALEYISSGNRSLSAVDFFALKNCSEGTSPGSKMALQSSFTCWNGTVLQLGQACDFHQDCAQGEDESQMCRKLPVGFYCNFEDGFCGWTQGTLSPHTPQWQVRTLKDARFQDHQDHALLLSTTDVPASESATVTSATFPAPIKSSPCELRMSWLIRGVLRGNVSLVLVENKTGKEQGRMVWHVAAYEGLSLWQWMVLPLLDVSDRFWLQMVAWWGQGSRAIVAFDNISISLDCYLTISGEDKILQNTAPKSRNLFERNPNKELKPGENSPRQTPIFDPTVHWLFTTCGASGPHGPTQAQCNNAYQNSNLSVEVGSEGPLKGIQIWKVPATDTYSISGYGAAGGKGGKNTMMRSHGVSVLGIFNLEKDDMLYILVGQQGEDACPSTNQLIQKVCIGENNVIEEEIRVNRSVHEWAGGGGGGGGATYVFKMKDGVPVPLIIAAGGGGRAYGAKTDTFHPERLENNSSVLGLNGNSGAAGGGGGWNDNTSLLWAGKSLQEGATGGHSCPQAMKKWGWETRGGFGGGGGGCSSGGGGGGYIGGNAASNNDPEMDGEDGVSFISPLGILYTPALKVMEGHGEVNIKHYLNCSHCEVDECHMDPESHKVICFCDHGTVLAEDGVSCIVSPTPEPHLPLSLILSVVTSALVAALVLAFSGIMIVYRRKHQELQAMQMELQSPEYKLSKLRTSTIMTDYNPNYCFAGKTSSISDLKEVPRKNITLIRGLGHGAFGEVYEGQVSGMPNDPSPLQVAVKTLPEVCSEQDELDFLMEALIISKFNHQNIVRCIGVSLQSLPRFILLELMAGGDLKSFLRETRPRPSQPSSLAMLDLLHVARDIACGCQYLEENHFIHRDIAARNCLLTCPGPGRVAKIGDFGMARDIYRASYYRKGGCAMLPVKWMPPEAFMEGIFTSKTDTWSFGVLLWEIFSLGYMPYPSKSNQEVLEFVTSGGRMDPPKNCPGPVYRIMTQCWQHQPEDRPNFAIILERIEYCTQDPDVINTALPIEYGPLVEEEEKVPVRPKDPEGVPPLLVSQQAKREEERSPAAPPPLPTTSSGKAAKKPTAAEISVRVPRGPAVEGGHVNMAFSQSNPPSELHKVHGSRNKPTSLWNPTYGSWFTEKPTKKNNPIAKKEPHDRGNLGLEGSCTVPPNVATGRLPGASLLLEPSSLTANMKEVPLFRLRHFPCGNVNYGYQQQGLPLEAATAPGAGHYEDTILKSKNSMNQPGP

[8] = system: SUDHL-1 lymphoma cells; test: Cellular assay, 3 day cell viability (WST-1); type: cell-based; details: Homo sapiens, SU-DHL-1, 72 h
[9] = molecular target: cMET (Homo sapiens (Human), UniProt P08581); test: In vitro kinase activity assay (LANCE TR-FRET); type: biochemical
[10] = molecular target: ROS (Homo sapiens (Human), UniProt P08922); test: In vitro kinase activity assay (LANCE TR-FRET); type: biochemical
[11] = molecular target: hERG (human ether-a-go-go related gene) potassium channel (Homo sapiens (Human), UniProt Q12809); test: hERG potassium channel current, automated patch clamp (PatchXpress 7000A);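 note: Four-point series of 0.3, 3, 10 and 30 µM, two cells recorded per concentration, 5 min exposure at each level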
Sequence of hERG (human ether-a-go-go related gene) potassium channel (Q12809 whole entry): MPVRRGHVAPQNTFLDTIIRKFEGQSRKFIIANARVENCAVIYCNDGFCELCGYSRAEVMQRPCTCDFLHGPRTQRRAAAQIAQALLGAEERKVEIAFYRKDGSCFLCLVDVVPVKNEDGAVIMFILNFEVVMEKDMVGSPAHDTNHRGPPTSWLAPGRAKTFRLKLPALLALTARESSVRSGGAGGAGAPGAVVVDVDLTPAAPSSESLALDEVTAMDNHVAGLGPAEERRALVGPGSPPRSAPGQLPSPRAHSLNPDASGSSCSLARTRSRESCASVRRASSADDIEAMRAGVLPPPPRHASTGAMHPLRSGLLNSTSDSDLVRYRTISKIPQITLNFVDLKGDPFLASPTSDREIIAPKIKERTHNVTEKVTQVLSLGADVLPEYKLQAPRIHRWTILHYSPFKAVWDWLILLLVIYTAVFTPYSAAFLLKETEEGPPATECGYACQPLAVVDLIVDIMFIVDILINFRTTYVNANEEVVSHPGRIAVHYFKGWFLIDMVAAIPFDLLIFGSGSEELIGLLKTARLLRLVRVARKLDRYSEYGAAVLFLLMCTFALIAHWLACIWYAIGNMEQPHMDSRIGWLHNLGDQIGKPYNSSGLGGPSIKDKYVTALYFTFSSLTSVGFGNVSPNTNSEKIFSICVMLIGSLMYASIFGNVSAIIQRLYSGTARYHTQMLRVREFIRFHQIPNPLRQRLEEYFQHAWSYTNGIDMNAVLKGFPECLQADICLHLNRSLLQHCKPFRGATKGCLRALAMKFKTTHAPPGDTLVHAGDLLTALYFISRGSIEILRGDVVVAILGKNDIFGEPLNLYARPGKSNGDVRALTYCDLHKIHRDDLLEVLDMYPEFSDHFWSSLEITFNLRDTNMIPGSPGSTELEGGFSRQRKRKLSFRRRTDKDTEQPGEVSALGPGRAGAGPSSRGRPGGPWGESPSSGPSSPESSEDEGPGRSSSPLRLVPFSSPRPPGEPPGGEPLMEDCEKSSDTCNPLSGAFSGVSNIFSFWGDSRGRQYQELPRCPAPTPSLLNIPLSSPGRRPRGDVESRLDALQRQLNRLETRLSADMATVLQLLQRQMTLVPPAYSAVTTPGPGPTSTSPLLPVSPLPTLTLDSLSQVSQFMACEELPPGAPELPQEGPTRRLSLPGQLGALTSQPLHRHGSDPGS

[12] = system: U937 lymphoma cells; test: Cellular assay, 3 day cell viability (WST-1); type: cell-based; details: Homo sapiens, U-937, 72 h
[13] = Caco-2 cell permeation study; type: in vitro ADME; details: human; for efflux ratio at 2 h, 10 μM: Caco-2, Caco-2; for Papp A→B at 2 h, 10 μM: Caco-2, pH 6.5, 10 μM, apical pH 6.5, 2 h; for Papp B→A at 2 h, 10 μM: Caco-2, pH 7.4, 10 μM, basolateral pH 7.4, 2 h;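 for all read-outs here: Caco-2 monolayers grown for 21–28 days with integrity confirmed by TEER, apical buffer HBSS with MES, basolateral buffer HBSS with HEPES, compound levels quantified by LC/MS/MS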
[14] = system: Caco-2 cells; test: Caco-2 cell permeation study; type: in vitro ADME; details: for Papp (10−6 cm/sec) A to B / Papp (10−6 cm/sec) B to A: 10 μM; for Papp (10−6 cm/sec) A to B: apical pH 6.5, 2 h; for Papp (10−6 cm/sec) B to A: basolateral pH 7.4, 2 h; for Efflux Ratio: Caco-2;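 for all read-outs here: Caco-2 monolayers grown for 21–28 days with integrity confirmed by TEER, apical buffer HBSS with MES, basolateral buffer HBSS with HEPES, compound levels quantified by LC/MS/MS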
[15] = Rat pharmacokinetics / bioavailability; type: in vivo
[16] = system: NB-1 neuroblastoma cells; test: Cellular assay, 3 day cell viability (WST-1); type: cell-based; details: 72 h
[17] = 3 days, WST-1, read-out: SUDHL-1 IC50
[18] = 3 days, WST-1, read-out: U937 IC50
[19] = male, Sprague-Dawley, plasma, po, 10 mg/kg P.O.

SMILES | IC50 ([1]; read-out: TrKA IC50) | IC50 ([1]; read-out: TrkA (nM) IC50) | microsomal CLint at 0.5 μM [2] | half-life at 0.5 μM [2] | microsomal CLint at 0.5 μM [3] | half-life at 0.5 μM [3] | IC50 ([4]; read-out: K299 IC50) | IC50 ([5]; read-out: RET (nM) IC50) | half-life at 0.5 μM [6] | microsomal CLint at 0.5 μM [6] | IC50 ([7]; read-out: ALK (nM) IC50) | IC50 ([7]; read-out: ALK IC50) | IC50 [9] | IC50 ([10]; read-out: ROS (nM) IC50) | IC50 [12, 18] | efflux ratio at 2 h, 10 μM [13] | Papp A→B at 2 h, 10 μM [13] | Papp B→A at 2 h, 10 μM [13] | Papp (10−6 cm/sec) B to A [14] | IC50 [11] | other results
C[C@@H](Cc1c(F)c(F)cc(F)c1F)Nc1cc[nH]c(=O)c1-c1nc2cc3c(cc2[nH]1)C(O)N(c1cccnc1)C3=O (stereo partly drawn) [Compound 13, 7-Hydroxy-2-(2-oxo-4-4(((S)-1-(2,3,5,6-tetrafluorophenyl)propan-2-yl)amino)-1,2-dihydropyridin-3-yl)-6-(pyridin-3-yl)-6,7-dihydroimidazo[4,5-f]isoindol-5(1H)-one] | 6 nM | – | 7.89 µL/min/mg | 1.46 h | 8.77 µL/min/mg | 1.32 h | 787 nM | – | 0.629 h | 18.4 µL/min/mg | – | – | > 10000 nM | – | > 3 µM | > 9.5 | < 0.2 ×10⁻⁶ cm/s | 1.9 ×10⁻⁶ cm/s | – | – | –
COC1c2cc3nc(-c4c(N[C@@H](C)Cc5c(F)c(F)cc(F)c5F)cc[nH]c4=O)[nH]c3cc2C(=O)N1c1cccnc1 (stereo partly drawn) [Compound 14, 7-Methoxy-2-(2-oxo-4-(((S)-1-(2,3,5,6-tetrafluorophenyl)propan-2-yl)amino)-1,2-dihydropyridin-3-yl)-6-(pyridin-3-yl)-6,7-dihydroimidazo[4,5-f]isoindol-5(1H)-one] | 42 nM | 41.6 nM | < 5.8 µL/min/mg | > 2 h | < 5.8 µL/min/mg | > 2 h | – | – | 1.71 h | 6.76 µL/min/mg | 174 nM | 174 nM | > 10000 nM | – | – | – | – | – | – | – | –
CC(Oc1cc(-c2cnn(C3CCNCC3)c2)cnc1N)c1c(Cl)ccc(F)c1Cl (racemic) [PF2341066, crizotinib, reference compound] | – | – | – | – | – | – | – | – | – | – | – | – | – | – | – | – | < 0.2 ×10⁻⁶ cm/s | 50.7 ×10⁻⁶ cm/s | 50.7 10−6 cm/sec | – | Papp (10−6 cm/sec) A to B ([14]; listed as Pfizer): >0.2 10−6 cm/sec; Papp (10−6 cm/sec) A to B ([14]; listed as Pfizer (PF2341066)): <0.2 10−6 cm/sec; IC50 ([16]; read-out: GTx-NB-1 IC50 (uM)): 0.167 µM; IC50 ([16]; read-out: NB-1 IC50(μM)): 0.167 µM; IC50 ([8]; read-out: GTx-SUDHL-1 IC50 (uM)): 0.132 µM; IC50 ([8]; read-out: SUDHL-1 IC50(μM)): 0.132 µM; MRT ([15]; male, Sprague-Dawley, plasma, iv, 10 mg/kg I.V.): 1.88 h; Cmax [15, 19]: 58.3 ng/mL; Tmax [15, 19]: 5.25 h; IC50 ([12]; read-out: GTx-U937 IC50 (uM)): 1.67 µM; IC50 ([12]; read-out: U937 IC50(μM)): 1.67 µM
C[C@@H](Cc1c(F)c(F)cc(F)c1F)Nc1cc[nH]c(=O)c1-c1nc2cc3c(cc2[nH]1)C(=O)N(CCN(C)C)C3=O [Compound 2, (S)-6-(2-(Dimethylamino)ethyl)-2-(2-oxo-4-((1-(2,3,5,6-tetrafluorophenyl)propan-2-yl)amino)-1,2-dihydropyridin-3-yl)imidazo[4,5-f]isoindole-5,7(1H,6H)-dione] | 12 nM | 12.2 nM | – | – | – | – | 1920 nM | 25.8 nM | – | – | 14 nM | 14 nM | 14 nM | 0.436 nM | > 10 µM | > 17.8 | < 0.2 ×10⁻⁶ cm/s | 3.6 ×10⁻⁶ cm/s | – | > 30000 nM | IC50 ([16]; 3 days, WST-1, read-out: NB-1 IC50): 0.666 µM; IC50 [8, 17]: 2.74 µM
Cc1c2c(cc3[nH]c(-c4c(NC(C)Cc5c(F)c(F)cc(F)c5F)cc[nH]c4=O)nc13)C(=O)N(C1CCN(C)CC1)C2 (stereo not shown) [Compound 24A, 8-Methyl-6-(1-methylpiperidin-4-yl)-2-(2-oxo-4-(1-(2,3,5,6-tetrafluorophenyl)propan-2-ylamino)-1,2-dihydropyridin-3-yl)-6,7-dihydroimidazo[4,5-f]isoindol-5(3H)-one] | – | 5.99 nM | – | – | – | – | – | 11.1 nM | – | – | 14.6 nM | – | – | 2.37 nM | – | – | – | – | – | – | –

The next lines start with results.

IC50 ([1]; read-out: TrKA IC50) | IC50 ([1]; read-out: TrkA (nM) IC50) | microsomal CLint at 0.5 μM [2] | half-life at 0.5 μM [2] | microsomal CLint at 0.5 μM [3] | half-life at 0.5 μM [3] | IC50 ([4]; read-out: K299 IC50) | IC50 ([5]; read-out: RET (nM) IC50) | half-life at 0.5 μM [6] | microsomal CLint at 0.5 μM [6] | IC50 ([7]; read-out: ALK (nM) IC50) | IC50 ([7]; read-out: ALK IC50) | IC50 [9] | IC50 ([10]; read-out: ROS (nM) IC50) | IC50 [12, 18] | efflux ratio at 2 h, 10 μM [13] | Papp A→B at 2 h, 10 μM [13] | Papp B→A at 2 h, 10 μM [13] | Papp (10−6 cm/sec) B to A [14] | SMILES | IC50 [11] | other results
4 nM | 4.33 nM | 29.4 µL/min/mg | 0.393 h | < 5.8 µL/min/mg | > 2 h | 265 nM | 13.1 nM | 0.343 h | 33.3 µL/min/mg | 9.16 nM | 9 nM | 1000 to 3000 nM | 0.688 nM | > 3 µM | – | – | – | – | CC(Cc1cc(F)ccc1F)Nc1cc[nH]c(=O)c1-c1nc2cc3c(cc2[nH]1)C(=O)N(CCN(C)C)C3 (racemic) [Compound 18, 2-(4-(1-(2,5-Difluorophenyl)propan-2-ylamino)-2-oxo-1,2-dihydropyridin-3-yl)-6-(2-(dimethylamino)ethyl)-6,7-dihydroimidazo[4,5-f]isoindole-5(1H)-one] | 5420 nM | IC50 [8, 17]: 0.172 µM
– | 7.81 nM | – | – | 25.3 µL/min/mg | 0.457 h | – | 16.9 nM | 0.145 h | 78 µL/min/mg | 34.1 nM | – | – | 1.88 nM | – | 6.6 | 1.25 ×10⁻⁶ cm/s | 8.24 ×10⁻⁶ cm/s | 7.41 10−6 cm/sec | CC(Cc1cc(F)ccc1F)Nc1cc[nH]c(=O)c1-c1nc2cc3c(cc2[nH]1)CNC3=O (stereo not shown) [Compound 53] | – | Papp (10−6 cm/sec) A to B [14]: 0.76 10−6 cm/sec; Efflux Ratio [14]: 10.1; IV_AUC0-1440 Rat 10 mpk ([15]; 10 mg/kg I.V.): 531 µg·min/mL; PO_AUC0-1440 Rat 10 mpk ([15]; 10 mg/kg P.O.): 2.13 µg·min/mL; bioavailability ([15]; male, Sprague-Dawley, plasma, po, 10 mg/kg P.O., read-out: Rat F %): 0.402%
20 nM | 20.4 nM | < 5.8 µL/min/mg | > 2 h | < 5.8 µL/min/mg | > 2 h | > 10000 nM | – | > 2 h | < 5.8 µL/min/mg | 47.3 nM | 47 nM | > 10000 nM | – | – | – | < 0.2 ×10⁻⁶ cm/s | < 0.2 ×10⁻⁶ cm/s | – | C[C@@H](Cc1c(F)c(F)cc(F)c1F)Nc1cc[nH]c(=O)c1-c1nc2cc3c(cc2[nH]1)C(=O)N(c1cccnc1)C3=O [Compound 12, (S)-2-(2-oxo-4-((1-(2,3,5,6-tetrafluorophenyl)propan-2-yl)amino)-1,2-dihydropyridin-3-yl)-6-(pyridin-3-yl)imidazo[4,5-f]isoindole-5,7(1H,6H)-dione] | > 3000 nM | –
– | 5.13 nM | – | – | 26.1 µL/min/mg | 0.443 h | – | 17.7 nM | 0.119 h | 97.2 µL/min/mg | 24.7 nM | – | – | 0.74 nM | – | 0.8 | – | – | 1.4 10−6 cm/sec | CC(Cc1cc(F)ccc1F)Nc1cc[nH]c(=O)c1-c1nc2cc3c(cc2[nH]1)CN(C)C3=O (stereo not shown) [Compound 33, 2-(4-(1-(2,5-Difluorophenyl)propan-2-ylamino)-2-oxo-1,2-dihydropyridin-3-yl)-6-methyl-6,7-dihydroimidazo[4,5-f]isoindol-5(1H)-one] | > 10000 nM | IC50 ([1]; read-out: GTx-TrKA IC50): 5 nM; Papp (10−6 cm/sec) A to B [14]: 1.7 10−6 cm/sec; Efflux Ratio [14]: 0.5; Mouse LM-P1 CL ([2]; Phase I only, 0.5 μM): 12.82 µL/min/mg; IC50 ([4]; read-out: GTx-K299 IC50): 532 nM; IC50 ([5]; read-out: GTx-RET IC50): 18 nM; IC50 ([7]; read-out: GTx-ALK IC50): 25 nM; IC50 ([8]; 3 days, WST-1, read-out: GTx-SUDHL-1 IC50): 0.867 µM; IC50 ([10]; read-out: GTx-ROS IC50): 0.7 nM; IC50 ([12]; 3 days, WST-1, read-out: GTx-U937 IC50): > 10 µM
